Assay results reported in patent publication US20260070903A1, “NOVEL PYRIDO[3,4-D]PYRIMIDIN-8-ONE DERIVATIVE HAVING PROTEIN KINASE INHIBITORY ACTIVITY, AND PHARMACEUTICAL COMPOSITION FOR PREVENTING, ALLEVIATING, OR TREATING CANCER, COMPRISING SAME” (KOREA INSTITUTE OF SCIENCE AND TECHNOLOGY, priority 2019, published 2026).

Key:
EPHA3 = EPHA3 (Homo sapiens, UniProt P29320); experiment: Kinase panel biochemical assay, EPHA3; conditions: single concentration of 1 μM, read-out: percent inhibition of kinase
Method: (§1) As a test compound, Compound No. 55 was used. The percent inhibition of each kinase when treated with the test compound at a single concentration of 1 μM was measured, and the residual enzyme activity values (%) of the kinases were calculated. Kinases whose calculated residual enzyme activity values (%) was 30% or less (i.e., kinases inhibited by 70% or more) are as follows: […]

EPHB4 = EPHB4 (Homo sapiens, UniProt P54760); experiment: Kinase panel biochemical assay, EPHB4; conditions: single concentration of 1 μM, read-out: percent inhibition of kinase
Method: as §1

FYN = FYN (Homo sapiens, UniProt P06241); experiment: Kinase panel biochemical assay, FYN; conditions: single concentration of 1 μM, read-out: percent inhibition of kinase
Method: as §1

KDR = KDR (Homo sapiens, UniProt P35968); experiment: Kinase panel biochemical assay, KDR; conditions: single concentration of 1 μM, read-out: percent inhibition of kinase
Method: as §1

FGFR4 = FGFR4 (Homo sapiens, UniProt P22455); experiment: Kinase panel biochemical assay, FGFR4; conditions: single concentration of 1 μM, read-out: percent inhibition of kinase
Method: as §1

ARAF = ARAF (Homo sapiens, UniProt P10398); experiment: Kinase panel biochemical assay, ARAF; conditions: single concentration of 1 μM, read-out: percent inhibition of kinase
ARAF, sequence (P10398 whole entry): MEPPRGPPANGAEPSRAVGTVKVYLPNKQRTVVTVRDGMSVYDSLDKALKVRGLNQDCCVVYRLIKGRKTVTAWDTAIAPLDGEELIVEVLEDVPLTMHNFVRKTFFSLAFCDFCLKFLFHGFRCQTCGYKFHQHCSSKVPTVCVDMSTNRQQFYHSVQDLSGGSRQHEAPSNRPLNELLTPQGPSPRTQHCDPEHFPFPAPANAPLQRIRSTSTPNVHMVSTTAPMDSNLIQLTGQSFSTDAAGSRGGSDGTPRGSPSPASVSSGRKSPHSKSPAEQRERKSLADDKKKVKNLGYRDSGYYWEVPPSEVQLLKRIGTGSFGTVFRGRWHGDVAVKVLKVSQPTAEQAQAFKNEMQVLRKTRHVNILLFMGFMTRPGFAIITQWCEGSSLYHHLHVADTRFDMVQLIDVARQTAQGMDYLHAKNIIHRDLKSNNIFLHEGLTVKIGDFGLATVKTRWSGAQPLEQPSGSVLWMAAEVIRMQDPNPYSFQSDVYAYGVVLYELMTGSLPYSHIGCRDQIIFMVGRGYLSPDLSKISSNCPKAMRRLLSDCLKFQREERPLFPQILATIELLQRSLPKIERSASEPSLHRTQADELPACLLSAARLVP
Method: as §1

Ba/F3 (N-Ras G12D) = experiment: Proliferation inhibitory activity, Ba/F3 N-Ras G12D; format: cell-based; conditions: Mus musculus, BaF3
Method: The inhibitory activities of the compounds of the present disclosure against the proliferation of the mt-NRAS (G12D) Ba/F3 and OCI-AML3 (mt-NRAS) cell lines were measured and the GI50 values thereof were calculated.

EPHA5 = EPHA5 (Homo sapiens, UniProt P54756); experiment: Kinase panel biochemical assay, EPHA5; conditions: single concentration of 1 μM, read-out: percent inhibition of kinase
Method: as §1

PEAK1 = PEAK1 (Homo sapiens, UniProt Q9H792); experiment: Kinase panel biochemical assay, PEAK1; conditions: single concentration of 1 μM, read-out: percent inhibition of kinase
Method: as §1

FGFR2 = FGFR2 (Homo sapiens, UniProt P21802); experiment: Kinase panel biochemical assay, FGFR2; conditions: single concentration of 1 μM, read-out: percent inhibition of kinase
Method: as §1

TXK = TXK (Homo sapiens, UniProt P42681); experiment: Kinase panel biochemical assay, TXK; conditions: single concentration of 1 μM, read-out: percent inhibition of kinase
TXK, sequence (P42681 whole entry): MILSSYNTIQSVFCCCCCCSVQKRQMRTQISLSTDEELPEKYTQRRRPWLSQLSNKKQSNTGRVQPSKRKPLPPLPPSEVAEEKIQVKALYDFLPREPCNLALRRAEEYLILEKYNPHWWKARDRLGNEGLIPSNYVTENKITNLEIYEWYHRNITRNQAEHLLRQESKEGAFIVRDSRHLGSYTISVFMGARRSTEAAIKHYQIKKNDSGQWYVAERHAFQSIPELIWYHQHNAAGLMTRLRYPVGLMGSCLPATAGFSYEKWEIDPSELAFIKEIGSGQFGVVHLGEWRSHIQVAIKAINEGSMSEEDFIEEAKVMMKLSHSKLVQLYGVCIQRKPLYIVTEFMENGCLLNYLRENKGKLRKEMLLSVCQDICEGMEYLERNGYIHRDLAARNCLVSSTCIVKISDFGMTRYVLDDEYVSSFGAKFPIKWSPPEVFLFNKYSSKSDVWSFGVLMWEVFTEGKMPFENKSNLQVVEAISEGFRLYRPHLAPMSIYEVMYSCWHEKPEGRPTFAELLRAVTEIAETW
Method: as §1

BRK = BRK (Homo sapiens, UniProt Q13882); experiment: Kinase panel biochemical assay, BRK; conditions: single concentration of 1 μM, read-out: percent inhibition of kinase
Method: as §1

YSK4 = YSK4 (Homo sapiens, UniProt Q56UN5); experiment: Kinase panel biochemical assay, YSK4; conditions: single concentration of 1 μM, read-out: percent inhibition of kinase
Method: as §1

DDR1 = DDR1 (Homo sapiens, UniProt Q08345); experiment: Kinase panel biochemical assay, DDR1; conditions: single concentration of 1 μM, read-out: percent inhibition of kinase
Method: as §1

TYK2 = TYK2 (Homo sapiens, UniProt P29597); experiment: Kinase panel biochemical assay, TYK2; conditions: single concentration of 1 μM, read-out: percent inhibition of kinase
Method: as §1

TAOK2 = TAOK2 (Homo sapiens, UniProt Q9UL54); experiment: Kinase panel biochemical assay, TAOK2; conditions: single concentration of 1 μM, read-out: percent inhibition of kinase
Method: as §1

ACK1 [1] = target: T1, ACK1 (Homo sapiens, UniProt Q07912); experiment: Kinase panel biochemical assay, ACK1; conditions: single concentration of 1 μM, read-out: percent inhibition of kinase
T1 sequence (Q07912 whole entry): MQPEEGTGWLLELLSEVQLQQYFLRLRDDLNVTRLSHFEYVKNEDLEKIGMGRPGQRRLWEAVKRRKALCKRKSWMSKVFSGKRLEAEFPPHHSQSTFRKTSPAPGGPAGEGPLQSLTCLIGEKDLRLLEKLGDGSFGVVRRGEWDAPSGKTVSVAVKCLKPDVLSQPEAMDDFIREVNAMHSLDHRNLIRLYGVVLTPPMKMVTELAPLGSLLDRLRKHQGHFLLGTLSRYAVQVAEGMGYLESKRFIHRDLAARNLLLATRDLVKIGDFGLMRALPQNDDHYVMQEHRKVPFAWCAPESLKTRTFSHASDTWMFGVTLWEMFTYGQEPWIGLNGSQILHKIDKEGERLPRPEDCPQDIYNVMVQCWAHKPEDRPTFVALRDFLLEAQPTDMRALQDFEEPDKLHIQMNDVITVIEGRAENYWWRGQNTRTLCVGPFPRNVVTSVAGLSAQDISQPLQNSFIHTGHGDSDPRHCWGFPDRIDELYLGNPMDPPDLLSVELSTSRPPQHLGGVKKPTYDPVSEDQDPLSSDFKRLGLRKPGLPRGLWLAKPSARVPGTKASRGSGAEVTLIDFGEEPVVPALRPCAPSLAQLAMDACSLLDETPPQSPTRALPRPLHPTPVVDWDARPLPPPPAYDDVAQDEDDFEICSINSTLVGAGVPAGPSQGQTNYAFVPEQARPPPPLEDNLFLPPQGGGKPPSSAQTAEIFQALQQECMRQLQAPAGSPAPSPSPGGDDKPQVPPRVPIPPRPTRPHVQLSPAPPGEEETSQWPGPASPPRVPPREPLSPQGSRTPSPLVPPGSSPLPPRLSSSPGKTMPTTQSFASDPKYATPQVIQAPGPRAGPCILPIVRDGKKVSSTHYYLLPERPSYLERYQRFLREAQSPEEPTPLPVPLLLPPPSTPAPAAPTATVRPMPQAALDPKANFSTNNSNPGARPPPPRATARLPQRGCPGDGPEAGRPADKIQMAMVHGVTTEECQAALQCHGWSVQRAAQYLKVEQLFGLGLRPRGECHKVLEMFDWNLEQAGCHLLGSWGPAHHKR
Method: as §1

EPHA8 = EPHA8 (Homo sapiens, UniProt P29322); experiment: Kinase panel biochemical assay, EPHA8; conditions: single concentration of 1 μM, read-out: percent inhibition of kinase
Method: as §1

EPHA6 = EPHA6 (Homo sapiens, UniProt Q9UF33); experiment: Kinase panel biochemical assay, EPHA6; conditions: single concentration of 1 μM, read-out: percent inhibition of kinase
EPHA6, sequence (Q9UF33 23-1036): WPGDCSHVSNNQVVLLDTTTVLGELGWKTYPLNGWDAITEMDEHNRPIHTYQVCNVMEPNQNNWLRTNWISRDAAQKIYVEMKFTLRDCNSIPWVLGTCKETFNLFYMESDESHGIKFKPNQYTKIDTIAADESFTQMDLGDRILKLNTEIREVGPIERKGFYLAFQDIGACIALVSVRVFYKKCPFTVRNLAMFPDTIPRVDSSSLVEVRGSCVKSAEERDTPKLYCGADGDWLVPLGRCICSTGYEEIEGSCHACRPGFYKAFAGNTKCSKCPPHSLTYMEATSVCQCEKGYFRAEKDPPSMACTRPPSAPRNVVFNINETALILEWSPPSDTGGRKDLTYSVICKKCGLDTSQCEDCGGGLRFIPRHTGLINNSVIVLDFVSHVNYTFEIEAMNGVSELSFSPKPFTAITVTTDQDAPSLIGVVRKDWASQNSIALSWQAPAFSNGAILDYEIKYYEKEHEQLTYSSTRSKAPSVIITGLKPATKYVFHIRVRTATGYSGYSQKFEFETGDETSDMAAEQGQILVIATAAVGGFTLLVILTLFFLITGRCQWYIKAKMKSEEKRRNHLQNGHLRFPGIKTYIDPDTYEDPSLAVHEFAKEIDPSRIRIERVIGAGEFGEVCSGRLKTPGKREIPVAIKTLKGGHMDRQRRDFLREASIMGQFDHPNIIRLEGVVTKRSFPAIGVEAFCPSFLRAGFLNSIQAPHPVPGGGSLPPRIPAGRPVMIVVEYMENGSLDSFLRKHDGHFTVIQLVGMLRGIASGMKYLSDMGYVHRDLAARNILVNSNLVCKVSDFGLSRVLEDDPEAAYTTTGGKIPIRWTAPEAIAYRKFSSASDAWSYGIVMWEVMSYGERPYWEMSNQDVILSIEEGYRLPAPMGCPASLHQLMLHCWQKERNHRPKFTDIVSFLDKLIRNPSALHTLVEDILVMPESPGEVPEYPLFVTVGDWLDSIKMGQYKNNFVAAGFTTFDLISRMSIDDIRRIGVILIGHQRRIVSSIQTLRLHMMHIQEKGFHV
Method: as §1

EPHA7 = EPHA7 (Homo sapiens, UniProt Q15375); experiment: Kinase panel biochemical assay, EPHA7; conditions: single concentration of 1 μM, read-out: percent inhibition of kinase
Method: as §1

LYNB = LYNB (Homo sapiens, UniProt P07948); experiment: Kinase panel biochemical assay, LYNB; conditions: single concentration of 1 μM, read-out: percent inhibition of kinase
Method: as §1

p38b = p38b (Homo sapiens, UniProt Q15759); experiment: Kinase panel biochemical assay, p38b; conditions: single concentration of 1 μM, read-out: percent inhibition of kinase
Method: as §1

JAK2 = JAK2 (Homo sapiens, UniProt O60674); experiment: Kinase panel biochemical assay, JAK2; conditions: single concentration of 1 μM, read-out: percent inhibition of kinase
JAK2, sequence (O60674 whole entry): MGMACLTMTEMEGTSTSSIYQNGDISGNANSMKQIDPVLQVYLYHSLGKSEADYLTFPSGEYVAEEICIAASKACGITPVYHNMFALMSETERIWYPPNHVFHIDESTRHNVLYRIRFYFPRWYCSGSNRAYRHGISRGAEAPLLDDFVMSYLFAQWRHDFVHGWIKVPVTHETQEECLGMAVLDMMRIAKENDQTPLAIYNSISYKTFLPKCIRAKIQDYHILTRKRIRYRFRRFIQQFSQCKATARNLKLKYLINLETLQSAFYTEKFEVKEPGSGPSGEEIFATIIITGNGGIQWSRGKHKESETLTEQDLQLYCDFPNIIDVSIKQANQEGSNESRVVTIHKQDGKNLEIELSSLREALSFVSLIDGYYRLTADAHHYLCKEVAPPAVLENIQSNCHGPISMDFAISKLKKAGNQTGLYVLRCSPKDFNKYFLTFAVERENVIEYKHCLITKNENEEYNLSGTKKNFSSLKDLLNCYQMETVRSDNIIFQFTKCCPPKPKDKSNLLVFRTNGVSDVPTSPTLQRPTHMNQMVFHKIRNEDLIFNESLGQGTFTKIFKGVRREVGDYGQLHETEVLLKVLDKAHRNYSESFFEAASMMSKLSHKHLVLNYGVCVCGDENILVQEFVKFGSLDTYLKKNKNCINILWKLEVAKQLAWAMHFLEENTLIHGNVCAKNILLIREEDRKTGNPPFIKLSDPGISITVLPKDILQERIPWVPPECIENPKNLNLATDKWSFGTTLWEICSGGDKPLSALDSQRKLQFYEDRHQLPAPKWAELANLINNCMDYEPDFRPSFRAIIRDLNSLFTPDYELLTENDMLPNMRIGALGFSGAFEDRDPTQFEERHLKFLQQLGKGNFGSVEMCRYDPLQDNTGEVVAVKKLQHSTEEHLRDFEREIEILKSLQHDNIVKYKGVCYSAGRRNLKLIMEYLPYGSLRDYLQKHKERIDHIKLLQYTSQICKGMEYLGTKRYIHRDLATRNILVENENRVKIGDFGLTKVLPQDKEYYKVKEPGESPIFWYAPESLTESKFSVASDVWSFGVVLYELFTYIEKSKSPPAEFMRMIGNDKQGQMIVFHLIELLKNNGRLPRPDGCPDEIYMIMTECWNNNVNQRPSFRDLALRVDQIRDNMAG
Method: as §1

FLT4 = FLT4 (Homo sapiens, UniProt P35916); experiment: Kinase panel biochemical assay, FLT4; conditions: single concentration of 1 μM, read-out: percent inhibition of kinase
Method: as §1

ACK1 [2] = target: T1, ACK1; experiment: Inhibitory activity against ACK1 kinase (IC50); format: biochemical
Method: The inhibitory activities of the compounds of the present disclosure against two kinases, GCK and ACK1, were measured, and the IC50 values thereof were calculated.

HCK = HCK (Homo sapiens, UniProt P08631); experiment: Kinase panel biochemical assay, HCK; conditions: single concentration of 1 μM, read-out: percent inhibition of kinase
HCK, sequence (P08631 whole entry): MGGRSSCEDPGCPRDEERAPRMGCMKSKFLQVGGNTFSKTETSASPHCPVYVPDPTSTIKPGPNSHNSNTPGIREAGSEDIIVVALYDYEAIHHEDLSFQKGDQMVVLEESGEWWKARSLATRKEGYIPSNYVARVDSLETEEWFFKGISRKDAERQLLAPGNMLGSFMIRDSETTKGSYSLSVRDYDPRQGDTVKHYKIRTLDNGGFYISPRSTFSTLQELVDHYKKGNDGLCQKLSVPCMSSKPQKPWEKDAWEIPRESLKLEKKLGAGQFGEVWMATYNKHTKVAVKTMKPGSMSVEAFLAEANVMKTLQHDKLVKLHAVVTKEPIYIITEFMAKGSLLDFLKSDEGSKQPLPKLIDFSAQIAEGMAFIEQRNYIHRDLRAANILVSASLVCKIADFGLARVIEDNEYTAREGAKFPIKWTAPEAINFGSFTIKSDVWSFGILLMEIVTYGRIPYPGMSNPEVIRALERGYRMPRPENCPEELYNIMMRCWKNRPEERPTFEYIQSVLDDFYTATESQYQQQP
Method: as §1

JAK1 = JAK1 (Homo sapiens, UniProt P23458); experiment: Kinase panel biochemical assay, JAK1; conditions: single concentration of 1 μM, read-out: percent inhibition of kinase
Method: as §1

p38a = p38a (Homo sapiens, UniProt Q16539); experiment: Kinase panel biochemical assay, p38a; conditions: single concentration of 1 μM, read-out: percent inhibition of kinase
Method: as §1

DDR2 = DDR2 (Homo sapiens, UniProt Q16832); experiment: Kinase panel biochemical assay, DDR2; conditions: single concentration of 1 μM, read-out: percent inhibition of kinase
Method: as §1

RIPK3 = RIPK3 (Homo sapiens, UniProt Q9Y572); experiment: Kinase panel biochemical assay, RIPK3; conditions: single concentration of 1 μM, read-out: percent inhibition of kinase
Method: as §1

BLK = BLK (Homo sapiens, UniProt P51451); experiment: Kinase panel biochemical assay, BLK; conditions: single concentration of 1 μM, read-out: percent inhibition of kinase
Method: as §1

RET = RET (Homo sapiens, UniProt P07949); experiment: Kinase panel biochemical assay, RET; conditions: single concentration of 1 μM, read-out: percent inhibition of kinase
Method: as §1

Cc1ccc(NC(=O)c2cccc(C(F)(F)F)c2)cc1-c1cc2cnc(N)nc2c(=O)[nH]1 [Compound No. 55, N-(3-(2-amino-8-oxo-7,8-dihydropyrido[3,4-d]pyrimidin-6-yl)-4-methylphenyl)-3-(trifluoromethyl)benzamide] was tested, and the inhibition at 1 µM (EPHA3) was ≥ 70%, the inhibition at 1 µM (EPHB4) was ≥ 70% and the inhibition at 1 µM (FYN) was ≥ 70%. The inhibition at 1 µM (KDR) was ≥ 70%, the inhibition at 1 µM (FGFR4) was ≥ 70% and the inhibition at 1 µM (ARAF) was ≥ 70%. For the same molecule, the GI50 (Ba/F3 (N-Ras G12D)) was < 0.5 µM, the inhibition at 1 µM (EPHA5) was ≥ 70% and the inhibition at 1 µM (PEAK1) was ≥ 70%. The inhibition at 1 µM (FGFR2) was ≥ 70%, the inhibition at 1 µM (TXK) was ≥ 70% and the inhibition at 1 µM (BRK) was ≥ 70%. The inhibition at 1 µM (YSK4) was ≥ 70%, the inhibition at 1 µM (DDR1) was ≥ 70% and the inhibition at 1 µM (TYK2) was ≥ 70%. For the same molecule, the inhibition at 1 µM (TAOK2) was ≥ 70%, the inhibition at 1 µM (ACK1 [1]) was ≥ 70% and the inhibition at 1 µM (EPHA8) was ≥ 70%. The inhibition at 1 µM (EPHA6) was ≥ 70%, the inhibition at 1 µM (EPHA7) was ≥ 70% and the inhibition at 1 µM (LYNB) was ≥ 70%. For the same molecule, the inhibition at 1 µM (p38b) was ≥ 70%, the inhibition at 1 µM (JAK2) was ≥ 70% and the inhibition at 1 µM (FLT4) was ≥ 70%. For the same molecule, the IC50 (ACK1 [2]) was 100 to 1000 nM, the inhibition at 1 µM (HCK) was ≥ 70% and the inhibition at 1 µM (JAK1) was ≥ 70%. The inhibition at 1 µM (p38a) was ≥ 70%, the inhibition at 1 µM (DDR2) was ≥ 70% and the inhibition at 1 µM (RIPK3) was ≥ 70%. The inhibition at 1 µM (BLK) was ≥ 70% and the inhibition at 1 µM (RET) was ≥ 70%.
